Source: patent publication US20260223850A1, “SUBSTITUTED PYRROLIDONE COMPOUND, PREPARATION METHOD THEREFOR, COMPOSITION AND APPLICATION THEREOF” (QINGDAO KINGAGROOT CHEMICAL COMPOUND CO., LTD., priority 2023, published 2026)

Tests used:
Leptochloa chinensis = assay: Seedling stage sealing experiment for water-seeding; format: in vivo; settings: 120 g a.i./ha, 15 days, fresh weight control rate
Method in brief: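 Seeds sown in soil-filled bowls kept moist in water-filled boxes; compound in acetone diluted with water and spray-applied at 120, 60, 30 and 15 g a.i./ha, triplicate. After 15 days in greenhouse, fresh-weight growth control scored on a 0–9 scale (9 = dead, 0 = no effect), averaged.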

Apple ring rot = assay: Fungicidal activity assay, petri dish method; format: cell-based; settings: 25° C., after 4 days; for Apple ring rot/% (mycelium growth inhibition rate): 400 ppm
Procedure: (§1) Petri dish method: The drug agent was dissolved with acetone, diluted with sterile water, and set to different levels of mass concentrations according to its activity. Under aseptic operation conditions, the pre-melted sterilized medium was quantitatively added into sterilized flasks according to the test treatment. The drug solutions were quantitatively aspirated in order from low to high concentrations, added into the above-mentioned flasks, and shaken well, respectively. Next, equal amounts of the solution were poured into 3 petri dishes with a diameter of 6 cm to prepare drug-containing plates with corresponding concentrations. In the test, a treatment without drugs was set up as the blank control and each treatment was repeated 3 times. A fungus cake was cut out from the edge of the colony of the cultured pathogens using a sterile hole puncher with a diameter of 3 mm under sterile conditions. The fungus cake was inoculated into the center of a drug-containing plate using an inoculator, with the mycelia facing up, covered with a plate cover, and cultured in an incubator at 25° C. The growth of pathogen mycelia was investigated according to the fungal growth in the blank control petri dishes after 4 days. The diameters of the colonies were measured with a caliper in millimeters (mm). Each colony was vertically measured for diameters once each by the cross method and then averaged. Based on the investigation results, the mycelium growth inhibition rate of each treatment concentration on the test target fungi was calculated in accordance with Equation (1) and (2). The unit was percentage (%).
(§2) [formula] • wherein: D—Increase of colony diameter; D1—Diameter of colony; D2—Diameter of fungus cake.
(§3) [formula] • wherein: I—Mycelium growth inhibition rate; D0—Increase of colony diameter of blank control; Dt—Increase of colony diameter of drug treatment.

Rice sheath blight = assay: Fungicidal activity assay, petri dish method; format: cell-based; settings: 25° C., after 4 days; for Rice sheath blight/% (mycelium growth inhibition rate): 400 ppm
Procedure: as §1, §2, §3

weeds [1] = assay: Activity assay of compositions, soil sealing treatment (S); format: in vivo; settings: treatment S, A 15 g a.i./ha
Text: (§4) The required active ingredient B was purchased from a reagent company or a technical material manufacturer or synthesized by a conventional method. The technical materials were all dissolved with acetone solvents and diluted with aqueous solution of 0.1% Tween® 80 emulsifier, which should be used immediately after dilution.
The test soil was quantitatively filled to ¾ of a pot, and then watered from the bottom of the pot to completely wet the soil to saturation. The seeds of the test weeds were accelerated to Just germinate, and then evenly and quantitatively broadcasted on the soil surface, covered with 0.5-1 cm soil according to the sizes of the seeds, and ready for use 72 hours after broadcasting.
Each treatment was repeated 4 times. Four pots were treated each time with 20 weed seeds per pot.
The seeds were planted in a 20 cm*30 cm square box. Water was added to 2-3 cm deep after sowing, then injected with the drug agent using a syringe, stirred evenly, and left to stand for 2 days to dry naturally. The soil was kept moist afterwards.
(§5) A method for investigating absolute numbers was employed. The whole seedlings of the survival weeds were cut along the soil surface with a blade, and the fresh weight of the weeds was weighed by an analytical balance. For dead weeds, the fresh weight thereof was considered zero.
(§6) The investigation was performed 21 days after the treatment for once in total.
(§7) The theoretical fresh weight inhibition rate of a mixed combination of each treatment was calculated by the Gowing method (E0═X+Y−X*Y/100), then compared with the measured inhibition rate (E) to evaluate the type of the combined action of the combination of the two on weeds. The combined action was a synergistic effect when E−E0 >10%; an antagonistic effect when E−E0<−10%; an additional effect when −10%≤E−E0≤10%. An optimal ratio was determined according to factors such as actual control effects, characteristics of herbicides, balance of the formulation, etc.

Echinochloa crusgalli = assay: Seedling stage sealing experiment for water-seeding; format: in vivo; settings: 120 g a.i./ha, 15 days, fresh weight control rate
Echinochloa phyllopogon = assay: as above; format: in vivo; settings: 120 g a.i./ha, 15 days, fresh weight control rate
Method in brief: (§8)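 Seeds sown on soil in pots kept moist in water-filled boxes, then sprayed with acetone/water compound solution at 120, 60, 30 and 15 g a.i./ha, in triplicate. Effect scored after 15 days in greenhouse as 0–9 levels of fresh-weight growth control, averaged.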

weeds [2] = assay: Activity assay of compositions, post-emergence spray treatment of stems and leaves (F); format: in vivo; settings: treatment F, A 30 g a.i./ha, 21 days after treatment
Procedure: as §4
Weeds were cultivated by the pot culture method. […] Weed seeds with plump and uniform grains were selected, soaked in lukewarm water at 25° C. for 6 hours, and accelerated to germinate in a 28° C. biochemical incubator (in darkness). The weed seeds that had just germinated were evenly placed on the surface of the soil and then covered with 0.5-1 cm soil according to the sizes of seeds.
The weeds were cultured in a controllable sunlight greenhouse at 20-30° C., in natural light and with relative humidity of 57%-72%.
Each treatment was repeated 4 times. Three pots with 20 weed seeds sowed per pot were treated each time.
The drug was applied once in total in the experiment. When at 1.5-2 leaf stage, the weeds were thinned out to maintain 10 strains per pot. Thirty strains were kept in each treatment and then continued to be cultured until the 3-4 leaf stage for further treatment.
The well-cultured test materials were evenly placed on a 0.5 m^2 platform and foliage-sprayed by the 3WP-2000-type walking spray tower at a dosage of […] and a spray pressure of 0.3 MPa. After all the drug solution was sprayed, the air valve was closed. And 30 seconds later, the door of the spray tower was opened, and the nutritional bowl was taken out. Next, the air valve was opened, and the spray tube was cleaned by spraying 50 mL of water. The test materials were transferred to and routinely cultured in a greenhouse after the treatment.
as §5, §6
as §7, with “etc. In the formula, X represents the fresh weight inhibition rate of the active ingredient A in a dosage of P; Y represents the fresh weight inhibition rate of the active ingredient B in a dosage of Q. The statistical results are shown in Table 6.” for “etc.”

Tomato gray mold = assay: Fungicidal activity assay, petri dish method; format: cell-based; settings: 25° C., after 4 days
Procedure: as §1, §2, §3

Huaidao (rice cultivar) = assay: Seedling stage sealing experiment for water-seeding (crop safety); format: in vivo; settings: 120 g a.i./ha, 15 days, fresh weight control rate; for Huaidao (rice cultivar) plant damage level: seedling stage sealing
Method in brief: as §8

Spodoptera frugiperda = assay: Insecticidal activity assay, spraying method; format: in vivo; settings: 500 ppm, 2nd instar, spray, 48 h after drug application
Procedure: (§9) Spraying method: the technical material was weighed and dissolved with acetone, and the drug liquid was diluted with distilled water to different concentrations. The 2nd instar Spodoptera frugiperda test insects or the 3rd instar Mythimna separata test insects reared indoors with consistent physiological conditions were selected. Ten test insects were picked into each petri dish. Two 2 cm-long corn leaves were placed in the petri dish and sprayed using a spray tower. Each dosage was repeated 3 times, with acetone of the corresponding concentration as a control. After drug application, the insects were transferred to and reared in a condition where the temperature was 25° C. and the humidity was 60%. The results were investigated 48 h after drug application and the death number per treatment was collected, respectively. The mortality was calculated in accordance with the following equation: Mortality (%)=(Number of dead insects/Number of test insects)×100.

Mythimna separata = assay: Insecticidal activity assay, spraying method; format: in vivo; settings: 500 ppm, 3rd instar, spray, 48 h after drug application
Procedure: as §9

[3] = spray, seedling stage sealing for water-seeding

SMILES	Echinochloa crusgalli activity level (growth control rate) (Echinochloa crusgalli; seedling stage sealing)	Echinochloa phyllopogon activity level (growth control rate) (Echinochloa phyllopogon; seedling stage sealing)	Tomato gray mold/% (mycelium growth inhibition rate) (Tomato gray mold; 400 ppm) [%]	Apple ring rot/% (mycelium growth inhibition rate) (Apple ring rot) [%]	Rice sheath blight/% (mycelium growth inhibition rate) (Rice sheath blight) [%]	Huaidao (rice cultivar) plant damage level (Huaidao (rice cultivar))	other results
Cc1cc(C)cc([C@H]2CN(C)C(=O)[C@@H]2C(=O)Nc2cnn(C)c2Cl)c1 [117′]	9	7 (Level 7: growth control rate greater than or equal to 80% and less than 90%)	–	–	–	–	Leptochloa chinensis activity level (growth control rate) (Leptochloa chinensis): 9; inhibition at 400 ppm (Apple ring rot; 96 h, read-out: Apple ring rot/% (mycelium growth inhibition rate)): 55%; inhibition at 400 ppm (Rice sheath blight; 96 h, read-out: Rice sheath blight/% (mycelium growth inhibition rate)): 66%; Control effect of A applied alone in a corresponding dose (%) (weeds [1]; Alisma plantago-aquatica, 21 days after treatment): 29.6%; Control effect of A applied alone in a corresponding dose (%) (weeds [1]; Paspalum distichum, 21 days after treatment): 45.7%; Control effect of A applied alone in a corresponding dose (%) (weeds [1]; Rotala indica, fresh weight inhibition 21 days after treatment): 37.6%; Control effect of A applied alone in a corresponding dose (%) (weeds [2]; Alisma plantago-aquatica): 24.8%; Control effect of A applied alone in a corresponding dose (%) (weeds [2]; Paspalum distichum): 42.6%
CN1C[C@H](c2ccc(C3CC3)cc2)[C@@H](C(=O)Nc2cnn(C)c2Cl)C1=O [259′]	5 (Level 5: growth control rate greater than or equal to 50% and less than 70%)	–	80	51	59	0	–
C=CCn1ncc(NC(=O)[C@H]2C(=O)N(C)C[C@@H]2c2cc(C)cc(C)c2)c1Cl [270′]	–	6 (Level 6: growth control rate greater than or equal to 70% and less than 80%)	51	–	61	0	Spodoptera frugiperda/% (mortality) (Spodoptera frugiperda): 55%; Mythimna separata/% (mortality) (Mythimna separata): 75%
CN1C[C@H](c2cc3ccccc3o2)[C@@H](C(=O)Nc2cnn(C)c2Cl)C1=O [356′]	5 (Level 5: growth control rate greater than or equal to 50% and less than 70%)	–	57	83	–	–	–
CN1C[C@H](c2ccc3c(c2)OC(F)(F)O3)[C@@H](C(=O)Nc2cnn(C)c2Cl)C1=O [357′]	–	–	80	65	50	–	–
CCn1ncc(NC(=O)[C@H]2C(=O)N(C)C[C@@H]2c2cc(C)cc(C)c2)c1Cl [418′]	9	9	–	–	–	–	Tomato gray mold/% (mycelium growth inhibition rate) (Tomato gray mold; 500 ppm): 96%
C#CCn1ncc(NC(=O)[C@H]2C(=O)N(C)C[C@@H]2c2cc(C)cc(C)c2)c1Cl [420′]	9	9	–	–	–	0	Spodoptera frugiperda/% (mortality) (Spodoptera frugiperda): 75%; Mythimna separata/% (mortality) (Mythimna separata): 90%
Cc1cc(C)cc([C@H]2CN(C)C(=O)[C@@H]2C(=O)Nc2cnn(C)c2Br)c1 [425′]	9	9	68	55	56	0	–
Cc1cc(Cl)cc([C@H]2CN(C)C(=O)[C@@H]2C(=O)Nc2cnn(C)c2Cl)c1 [504′]	–	–	–	80	83	–	Huaidao (rice cultivar) plant damage level (growth control rate) (Huaidao (rice cultivar); [3]): 0; Echinochloa crusgalli activity level (growth control rate) (Echinochloa crusgalli; [3]): 9; Echinochloa phyllopogon activity level (growth control rate) (Echinochloa phyllopogon; [3]): 9
